# Measured values as given in patent publication US5008267A, “Pyrimidinedione compounds, method of producing the same and antiarrythmic agents containing the same” (Mitsui Toatsu Chemicals, Incorporated, priority 1988, dated 1991).
# Structures can show the parent of a compound that is named as a salt.
# How the values were obtained:
# [1] = test system: Purkinje fiber of the right ventricular free wall (myocardial action potential); assay: Influence on myocardial action potential duration time (APD75), isolated right ventricular free wall, microelectrode in Purkinje fiber; type: cell-based, dog; conditions: Canis lupus familiaris, 20 min, 20 minutes' incubation; for activation at 1 µg/mL: 1.0 μg/ml; for activation at 1 µg/mL / activation at 3 µg/mL / activation at 10 µg/mL: (B-A)/A×100, read-out: APD75 (%); for activation at 3 µg/mL: 3.0 μg/ml; for activation at 10 µg/mL: 10.0 μg/ml; for activation at 0.3 µg/mL: 0.3 μg/ml, (B-A)/A×100
# [2] = test system: ventricular muscle refractory period; assay: Influence on ventricular muscle refractory period (ERP); type: in vivo, mongrel dog; conditions: Canis lupus familiaris, iv, i.v., (W-Y)/Y×100, read-out: ERP (%; extensibility of refractory period)
# Protocol: (2) Influence on ventricular muscle refractory period Refractory periods were measured in the following manner before and after each of the compounds and d-sotalol shown in Table 2 was separately administered to a vein or a duodenum, and ERP (%; extensibility of refractory period) was calculated from the measured values: ERP (%)=(W-Y)/Y×100 W: Refractory period after administration Y: Refractory period before administration To a mongrel adult dog, 30 mg/kg of pentobarbital was administered intravenously, and after being anesthetized, a pair of silver-silver chloride electrodes separated by 3 mm was sewn on an opened right ventricule, and electrical stimulation was given at an interval of 400 msec at a duration time of 4 msec under a current twice as much as the threshold. Afterward, a small amount of alcohol was injected into a sinus artery in order to extinguish a pacemaker activity, and the ventricular refractory period (ERP) was measured under ventricule pacing. That is, each 1 train comprised 10 stimulations having intervals of 400 msec, and an interval between the trains was usually 400 msec. However, this interval was shortened 10 msec by 10 msec at the time of the refractory period measurement, and an interval between the trains at the time when reaction to the first stimulation of the train disappeared was regarded as the refractory period. In this case, the electrical stimulation was fed in accordance with a program by a heart stimulation device (Diamedical Co., Ltd.; DHM-226-3).
Structure (SMILES),activation at 1 µg/mL [1] [%],activation at 3 µg/mL [1] [%],activation at 10 µg/mL [1] [%],change in vivo at 0.1 mg/kg [2] [%],change in vivo at 0.3 mg/kg [2] [%],change in vivo at 1 mg/kg [2] [%],change in vivo at 3 mg/kg [2] [%],activation at 0.3 µg/mL [1] [%]
"Cn1c(N2CCN(CC(=O)c3ccc([N+](=O)[O-])cc3)CC2)cc(=O)n(C)c1=O [Compound 42, 1,3-dimethyl-6-[4-(4-nitrophenacyl)piperazin-1-yl]-2,4(1H,3H)-pyrimidinedione hydrochloride]",2,10,17,4.6,9.4,11.7,18.4,
Cn1c(N2CCN(CCOc3ccc([N+](=O)[O-])cc3C(=O)c3ccccc3)CC2)cc(=O)n(C)c1=O [Compound 99],9,22,29,9.8,14.7,23.1,,
"Cn1c(NCCN(CCCc2ccc([N+](=O)[O-])cc2)CCOC(=O)c2ccccc2)cc(=O)n(C)c1=O [Compound 168, 1,3-dimethyl-6-{2-[N-(2-benzoyloxyethyl)-3-(4-nitrophenyl)propylamino]ethylamino}-2,4(1H,3H)-pyrimidinedione oxalate]",48,55,68,6,12,18,18,
"CC(=O)c1cc([N+](=O)[O-])ccc1OCCCN1CCN(c2cc(=O)n(C)c(=O)n2C)CC1 [Compound 76, 1,3-dimethyl-6-{4-[3-(2-acetyl-4-nitrophenoxy)propyl]piperazin-1-yl}-2,4(1H,3H)-pyrimidinedione oxalate]",16,21,,2.4,4.3,12.6,16.5,
"Cn1c(N2CCN(CCCOc3ccc([N+](=O)[O-])cc3O)CC2)cc(=O)n(C)c1=O [Compound 162, 1,3-dimethyl-6-{4-[3-(2-hydroxy-4-nitrophenyloxy)propyl]piperazin-1-yl}-2,4(1H,3H)-pyrimidinedione hydrochloride]",19,41,60,0,0,0,0,
"Cn1c(N2CCN(CCCOc3ccc([N+](=O)[O-])cc3)CC2)cc(=O)n(C)c1=O [Compound 35, 1,3-dimethyl-6-{4-[3-(4-nitrophenoxy)propyl]piperazin-1-yl}-2,4(1H,3H)-pyrimidinedione hydrochloride]",17,22,30,6,12,15.8,25.3,
"CC(C)NC[C@@H](O)c1ccc(NS(C)(=O)=O)cc1 [d-sotalol, reference compound]",3,7.4,15.8,1.7,6.7,8.7,15.5,0
"CN(CCCN1CCN(c2cc(=O)n(C)c(=O)n2C)CC1)c1ccc([N+](=O)[O-])cc1 [Compound 69, 1,3-dimethyl-6-{4-[3-(N-methyl-4-nitroanilino)propyl]piperazin-1-yl}-2,4(1H,3H)-pyrimidinedione oxalate]",,11,13,6.7,6.7,13.3,20,
CCN(CCNc1cc(=O)n(C)c(=O)n1C)CCc1ccc([N+](=O)[O-])cc1 [Compound 21],13,27,37,7,10,14,14,
"Cn1c(N2CCN(CCOc3ccc([N+](=O)[O-])cc3)CC2)cc(=O)n(C)c1=O [Compound 53, 1,3-dimethyl-6-{4-[2-(4-nitrophenoxy)ethyl]piperazin-1-yl}-2,4(1H,3H)-pyrimidinedione hydrochloride]",8,22,43,8.8,23,30.1,,
"Cn1c(N2CCN(CCCOc3ccc(Cl)cc3[N+](=O)[O-])CC2)cc(=O)n(C)c1=O [Compound 140, 1,3-dimethyl-6-{4-[3-(4-chloro-2-nitrophenoxy)propyl]piperazin-1-yl}-2,4(1H,3H)-pyrimidinedione hydrochloride]",6,17,29,0,3.55,3.55,,
"Cn1c(N2CCN(CC(O)c3ccc([N+](=O)[O-])cc3)CC2)cc(=O)n(C)c1=O (stereo not drawn) [Compound 44, 1,3-dimethyl-6-{4-[2-hydroxy-2-(4-nitrophenyl)ethyl]piperazin-1-yl}-2,4-(1H,3H)-pyrimidinedione hydrochloride]",5,13,21,0,7.7,19.9,27.8,
"Cn1c(N2CCN(CCCc3ccc(C(=O)c4ccccc4)cc3[N+](=O)[O-])CC2)cc(=O)n(C)c1=O [Compound 136, 1,3-dimethyl-6-{4-[3-(4-benzoyl-2-nitrophenyl)propyl]piperazin-1-yl}-2,4(1H,3H)-pyrimidinedione hydrochloride]",11,14,,,7.7,15.4,15.4,
"Cn1c(NCCN2CCN(c3ccc([N+](=O)[O-])cc3)CC2)cc(=O)n(C)c1=O [Compound 64, 1,3-dimethyl-6-{2-[4-(4-nitrophenyl)piperazin-1-yl]ethylamino}-2,4(1H,3H)-pyrimidinedione oxalate]",23,32,,21.4,28.6,28.6,,8
"Cn1c(N2CCN(CCCOc3cccc([N+](=O)[O-])c3)CC2)cc(=O)n(C)c1=O [Compound 38, 1,3-dimethyl-6-{4-[3-(3-nitrophenoxy)propyl]piperazin-1-yl}-2,4(1H,3H)-pyrimidinedione hydrochloride]",15,34,,0,0,7,14,
"COc1cc([N+](=O)[O-])ccc1OCCCN1CCN(c2cc(=O)n(C)c(=O)n2C)CC1 [Compound 164, 1,3-dimethyl-6-{4-[3-(2-methoxy-4-nitrophenyloxy)propyl]piperazin-1-yl}-2,4(1H,3H)-pyrimidinedione hydrochloride]",,8,12,0,7.7,15.4,15.4,
"Cn1c(N2CCN(CCCOc3ccc([N+](=O)[O-])cc3N)CC2)cc(=O)n(C)c1=O [Compound 153, 1,3-dimethyl-6-{4-[3-(2-amino-4-nitrophenyloxy)propyl]piperazin-1-yl}-2,4(1H,3H)-pyrimidinedione oxalate]",20,25,,6.1,9.1,18.3,,
"Cn1c(N2CCN(CCCOc3ccccc3[N+](=O)[O-])CC2)cc(=O)n(C)c1=O [Compound 55, 1,3-dimethyl-6-{4-[3-(2-nitrophenoxy)propyl]piperazin-1-yl}-2.4(1H,3H)-pyrimidinedione hydrochloride]",,18,39,0,0,6.8,13.6,
"Cn1c(N2CCN(CCc3ccc(C(=O)c4ccccc4)cc3[N+](=O)[O-])CC2)cc(=O)n(C)c1=O [Compound 137, 1,3-dimethyl-6-{4-[2-(4-benzoyl-2-nitrophenyl)ethyl]piperazin-1-yl}-2,4(1H,3H)-pyrimidinedione oxalate]",32,51,,6.3,6.3,12.5,18.8,
